ChEMBL document CHEMBL4196097, “Emerging Approaches for the Identification of Protein Targets of Small Molecules - A Practitioners' Perspective” (J Med Chem, 2018)

How the values were obtained:
Adenosine receptor A3 = biological target: T1, Adenosine receptor A3 (Homo sapiens, UniProt P0DMS8); experiment: Inhibition of adenosine A3 receptor (unknown origin)
T1 sequence (P0DMS8 whole entry): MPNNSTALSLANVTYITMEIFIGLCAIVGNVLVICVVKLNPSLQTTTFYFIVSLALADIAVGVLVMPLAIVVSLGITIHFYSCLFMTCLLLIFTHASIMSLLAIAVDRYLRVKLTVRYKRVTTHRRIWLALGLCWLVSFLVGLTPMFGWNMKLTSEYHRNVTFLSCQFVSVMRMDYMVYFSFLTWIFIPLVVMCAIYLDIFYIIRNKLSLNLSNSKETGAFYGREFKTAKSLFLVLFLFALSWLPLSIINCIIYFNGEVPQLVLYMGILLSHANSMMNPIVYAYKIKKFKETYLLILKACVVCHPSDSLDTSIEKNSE

Translocator protein = Translocator protein (Homo sapiens, UniProt P30536); experiment: Inhibition of peripheral-type benzodiazepine receptor (unknown origin)
Chain of Translocator protein (P30536 whole entry): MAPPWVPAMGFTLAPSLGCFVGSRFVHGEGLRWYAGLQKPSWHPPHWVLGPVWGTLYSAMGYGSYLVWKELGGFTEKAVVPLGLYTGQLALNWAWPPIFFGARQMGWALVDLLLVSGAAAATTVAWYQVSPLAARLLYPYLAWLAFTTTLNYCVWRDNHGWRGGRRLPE

Which results are given for COC(=O)C[C@@H]1N=C(c2ccc(Cl)cc2)c2c(sc(C)c2C)-n2c(C)nnc21?
IC50 (Adenosine receptor A3): 1.4 µM; IC50 (Translocator protein): 0.4 µM
